Results published in PubChem BioAssay AID1645862 (Buhrlage Lab, Dana-Farber Cancer Institute and Novartis …, 2021).
pIC50: −log10 of the molar value. The source made the active and inactive calls. How the calls were made is not given here.

Target: Ubiquitin carboxyl-terminal hydrolase 8 (Homo sapiens) (UniProt P40818)
Test: Ubiquitin-specific protease 8 inhibitors, concentration-effect, biochemical, validation of initial actives (AID 1645862);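 further: potency reflects inhibition of USP8 cleavage of a ubiquitin rhodamine substrate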
Conditions: recombinant USP8 deubiquitinase activity assay

Ubiquitin carboxyl-terminal hydrolase 8 (Homo sapiens), sequence (P40818 whole entry, looked up): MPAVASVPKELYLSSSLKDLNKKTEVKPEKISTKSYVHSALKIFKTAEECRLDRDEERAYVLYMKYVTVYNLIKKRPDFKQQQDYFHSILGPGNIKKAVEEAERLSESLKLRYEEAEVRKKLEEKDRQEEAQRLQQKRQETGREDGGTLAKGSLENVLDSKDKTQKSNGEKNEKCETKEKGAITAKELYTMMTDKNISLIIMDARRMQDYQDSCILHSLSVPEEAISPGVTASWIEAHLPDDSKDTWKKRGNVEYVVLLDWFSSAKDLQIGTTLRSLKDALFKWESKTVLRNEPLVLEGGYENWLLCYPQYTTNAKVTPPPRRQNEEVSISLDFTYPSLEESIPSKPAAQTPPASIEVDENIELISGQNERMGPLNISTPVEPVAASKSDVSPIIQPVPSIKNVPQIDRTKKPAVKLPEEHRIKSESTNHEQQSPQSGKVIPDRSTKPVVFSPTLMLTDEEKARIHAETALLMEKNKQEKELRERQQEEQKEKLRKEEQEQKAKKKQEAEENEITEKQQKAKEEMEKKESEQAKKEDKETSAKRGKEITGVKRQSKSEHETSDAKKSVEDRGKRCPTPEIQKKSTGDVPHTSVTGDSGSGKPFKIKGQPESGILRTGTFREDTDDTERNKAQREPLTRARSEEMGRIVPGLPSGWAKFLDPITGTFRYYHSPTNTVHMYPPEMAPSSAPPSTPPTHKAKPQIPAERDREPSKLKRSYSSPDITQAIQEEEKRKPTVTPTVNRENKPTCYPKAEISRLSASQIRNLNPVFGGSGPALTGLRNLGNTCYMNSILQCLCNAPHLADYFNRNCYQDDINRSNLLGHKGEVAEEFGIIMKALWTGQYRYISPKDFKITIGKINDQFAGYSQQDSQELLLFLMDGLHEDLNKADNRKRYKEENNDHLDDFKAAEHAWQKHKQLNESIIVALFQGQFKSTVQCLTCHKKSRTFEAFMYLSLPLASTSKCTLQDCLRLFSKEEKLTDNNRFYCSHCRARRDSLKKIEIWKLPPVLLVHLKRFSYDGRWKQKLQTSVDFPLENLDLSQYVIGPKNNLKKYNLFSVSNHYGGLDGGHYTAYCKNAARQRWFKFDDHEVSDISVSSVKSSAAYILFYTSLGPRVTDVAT

IC50, inactive:
O=C(COc1ncnc2sc3c(c12)CCCC3)Nc1ccc2c(c1)OCO2 > 40 µM
COc1ccc(C(=O)C(C)OC(=O)c2cccc(S(=O)(=O)Nc3cc([N+](=O)[O-])ccc3OC)c2)c(OC)c1 (centres undefined) > 40 µM
COCCCNC(=O)c1ccc(Cn2c(=O)c3ccccc3n(CC(=O)Nc3ccc4c(c3)OCCO4)c2=O)cc1 > 40 µM
Cc1ccccc1NC(=O)N1CCC(CC(=O)N2CCCCC2)CC1 > 40 µM
O=C(NCCN1CCOCC1)c1cn2cc(Cl)ccc2n1 > 40 µM
O=C(Nc1ccc(Br)cc1F)c1ccc(S(=O)(=O)N2CCCC2)cc1 > 40 µM
Cc1c(Cl)cccc1NC(=O)Cn1cc(C(=O)C2CC2)c2ccccc21 > 40 µM
COc1cc2c(=O)n(Cc3ccccc3)c(=O)n(CC(=O)N3CCCc4ccccc43)c2cc1OC > 40 µM
COc1cc(OC)c(NC(=O)c2cc(-c3ccccn3)n[nH]2)cc1Cl > 40 µM
COC(=O)c1ccc2c(=O)n(CCCCCC(=O)NCCC3=CCCCC3)c(=O)[nH]c2c1 > 40 µM
CCC(=O)Nc1nc2cc(NC(=O)Nc3cc(C)cc(C)c3)ccc2s1 > 40 µM
Cc1ccc(S(=O)(=O)NCc2ccc(C(=O)NCCc3ccc(S(N)(=O)=O)cc3)cc2)cc1 > 40 µM
CCC(C)N1CNc2c(c(=O)[nH]c(=O)n2Cc2ccco2)C1 (centres undefined) > 40 µM
Cc1cccc(C)c1NC(=O)COc1ccccc1-c1nnc(-c2ccccc2)o1 > 40 µM
CCC(=O)Nc1nc2cc(NC(=O)Nc3ccccc3Cl)ccc2s1 > 40 µM
COc1ccc(NC(=O)Cn2c(C)cc(=O)n3nc(-c4cccc(C)c4)nc23)cc1 > 40 µM
CCOc1ccc(-c2nnc(-c3cnc4onc(C5CCCC5)c4c3)o2)cc1 > 40 µM
CC(C)n1cc(CN2CCC(C(=O)Nc3cccc(-c4cccc(Cl)c4)c3)CC2)cn1 > 40 µM
COc1ccc(NC(=O)Cn2c(=O)n(CCCC(=O)NC3CCCC3)c(=O)c3cc(Cl)ccc32)c(OC)c1 > 40 µM
COc1cc(OC)c2c(c1)C(=O)C1=C(COC(C)(O)C1)C2=O (centres undefined) > 40 µM
CCCCNC(=O)CSc1nnc(-c2cc3ccccc3n2C)o1 > 40 µM
O=C(Cn1c(=O)n(Cc2ccc(C(=O)NC3CCCC3)cc2)c(=O)c2ccccc21)c1ccc(Cl)c(Cl)c1 > 40 µM
CC(C)=CCC/C(C)=C/COc1ccc(/C=C2\C(=O)N(O)[C@@H](C)C(=O)N2O)cc1 > 40 µM
CCOc1ccc(-n2c(=O)c3sccc3n(CC(=O)Nc3cccc(C)c3)c2=O)cc1 > 40 µM
CC(=O)c1ccc(N2CCN(S(=O)(=O)c3cc4c(cc3C)NC(=O)CO4)CC2)cc1 > 40 µM
CCOc1ccc2c(c1)c(=O)c(C(=O)c1ccccc1)cn2CC(=O)Nc1ccc2c(c1)OCCO2 > 40 µM
Cc1nc(-c2ccccc2)sc1-c1nc(-c2ccccc2)ncc1S(=O)(=O)c1ccccc1 > 40 µM
Cn1c(=O)n([C@@H](Cc2ccccc2)C(=O)N[C@@H](C(=O)O)c2ccc(O)cc2)c(=O)c2ccccc21 > 40 µM
Cc1ccccc1NC(=O)Nc1ccccc1OCc1cc(=O)n2cccc(C)c2n1 > 40 µM
COc1cc(NS(=O)(=O)c2ccc(NC(=O)COc3ccc(C)cc3Br)cc2)nc(OC)n1 > 40 µM
CC(NC(=O)c1ccccc1)c1nc2ccccc2n1CC(=O)Nc1ccc(F)cc1 (centres undefined) > 40 µM
O=C(COc1ccc(C2CCCCC2)cc1)Nc1ccc(-c2nn3cnnc3s2)cc1 > 40 µM
O=C(Nc1ccc(F)cc1F)NC1CCN(c2ccccc2)C1=O (centres undefined) > 40 µM
O=C(/C=C/c1cccc([N+](=O)[O-])c1)N1CCc2ccccc21 > 40 µM
Fc1cccc(Nc2nc(-c3ccccn3)nc3ccccc23)c1 > 40 µM
Cc1ccc(NC(=O)COc2ccccc2/C=C2/NC(=O)N(Cc3ccc(F)cc3)C2=O)cc1 > 40 µM
COc1cc2c(c(OCC(=O)Nc3ccc4c(c3)OCCO4)c1)C(=O)O[C@@H](C)CCCC(=O)CCCCC2 > 40 µM
Cc1ccc(C(=O)c2cn(CC(=O)Nc3ccccc3)c3ccc(C)cc3c2=O)cc1 > 40 µM
COc1ccc(OC)c(NC(=O)Cn2c(=O)n(C3CCCCC3)c(=O)c3ccccc32)c1 > 40 µM
COc1cccc(NC(=O)C(Sc2cccc(NC(=O)c3ccccc3F)c2)c2ccccc2)c1 (centres undefined) > 40 µM
CN1c2ccccc2C(=O)NC12CCN(C(=O)NCc1ccccc1)CC2 > 40 µM
Cn1c(CCNC(=O)c2[nH]nc3c2CCc2ccccc2-3)nc2ccccc21 > 40 µM
O=C(CSc1nc2cc(C(F)(F)F)ccc2s1)NCC(=O)c1ccccc1 > 40 µM
O=C(Cn1c(=O)n(-c2ccccc2)c(=O)c2ccc(C(=O)NCc3ccc4c(c3)OCO4)cc21)NCCC1=CCCCC1 > 40 µM
O=C(Cc1ccc(-n2c(=O)c3ccccc3n(Cc3cccc([N+](=O)[O-])c3)c2=O)cc1)NC1CCCC1 > 40 µM
CC(CCc1ccccc1)NC(=O)Cn1c(=O)c2cccn2c2ccccc21 (centres undefined) > 40 µM
COc1cccc(NC(=O)c2cn(-c3cc(N4CCCC4)ncn3)cn2)c1 > 40 µM
Cc1ccc2c(c1)c(=O)c(C(=O)c1ccccc1)cn2CC(=O)Nc1ccc2c(c1)OCCO2 > 40 µM
COc1cccc(C(=O)Nc2ccc(SC(C)C(=O)Nc3ccc(C(N)=O)cc3)cc2)c1 (centres undefined) > 40 µM
O=C(Cn1c(=O)n(Cc2ccc3c(c2)OCO3)c(=O)c2cccnc21)Nc1ccc(F)cc1 > 40 µM
O=C(Cc1nnc(NC(=O)Nc2ccc3c(c2)OCO3)s1)NCc1ccccc1 > 40 µM
Cc1ccc(OCc2nc3ccccc3n2CC(=O)Nc2ccc(C(F)(F)F)cc2)cc1 > 40 µM
CSc1cccc(C(=O)Nc2ccc(-c3nc4ccccc4[nH]3)cc2)c1 > 40 µM
Cc1ccc(CNC(=O)c2nc(-c3ccc4c(c3)OCC(=O)N4C)no2)cc1 > 40 µM
COc1cc(=O)c(C(=O)Nc2ccc(C#N)cc2)nn1-c1cccc(F)c1 > 40 µM

pIC50, active:
CC(C)[C@H]1CC[C@@]2(CO2)[C@H]2C(=O)OCC(C(=O)O)=C[C@H]12 4.64
O=C1c2c(O)c(Cl)cc3c2[C@@]2(Oc4ccc(O)c5c4[C@]3(O2)[C@@H]2O[C@@H]2C5=O)[C@@H]2O[C@H]12 5.96
O=c1[nH]c2ccc(S(=O)(=O)Nc3ccc(O)c4ccccc34)cc2[nH]1 4.95
Cc1ccc2[nH]c3c(=O)n(Cc4ccc(N(C)C)cc4)cnc3c2c1 4.51
C[C@@H]1OC2=C(C(=O)c3cccc(O)c3C2=O)[C@H](O)[C@@H]1O 6.08
O=C(c1ccccn1)N1CCC2(CC1)CC1(CO2)Nc2ccccc2-n2cccc21 (centres undefined) 4.64
O=C1Cc2ccccc2C(=O)N1c1ccc2c(c1)OCO2 4.42
CCOc1ccc2c(c1)c(=O)c(C(=O)c1ccccc1)cn2CC(=O)Nc1ccc(Cl)cc1 4.49
COc1c(O)cc(CC(=O)O)c(C(C)=O)c1O 5.33
